Experimental findings from ChEMBL document CHEMBL4392851, “Synthesis and structure-activity relationships for new 6-fluoroquinoline derivatives with antiplasmodial activity” (Bioorg Med Chem, 2019) are described below.

One series has as its system Plasmodium falciparum. The experiment in a line: Antiplasmodial activity against chloroquine-sensitive Plasmodium falciparum NF54 erythrocytic stages incubated for 48 hrs by [3H]-hypoxanthine incorporation assay. The class given is functional, organism-based.
Conditions: not given
In the case of `CC(C)(C)N1CCN(CCNC(=O)c2cc(-c3ccc(CN4CCOCC4)cc3)nc3ccc(F)cc23)CC1`, half-maximal inhibition (IC50) required 3110 nM.
Same read-out and setting: then `O=C(c1cc(-c2ccc(CN3CCOCC3)cc2)nc2ccc(F)cc12)N1CCCCC1`, with 37700 nM; and `O=C(CN1CCCC1)Nc1cc(-c2ccc(CN3CCOCC3)cc2)nc2ccc(F)cc12`, with 1040 nM.
The same measure, in the same setting: then `O=C(NCCc1ccccc1)c1cc(-c2ccc(CN3CCOCC3)cc2)nc2ccc(F)cc12`, with 4620 nM; and `O=C(NCc1ccccc1)c1cc(-c2ccc(CN3CCOCC3)cc2)nc2ccc(F)cc12`, with 5990 nM; and `CC(C)(C)C(=O)N1CCN(CCNC(=O)c2cc(-c3ccc(CN4CCOCC4)cc3)nc3ccc(F)cc23)CC1`, with 5 nM.
Same read-out and setting: for `O=C(NC1CCNCC1)c1cc(-c2ccc(CN3CCOCC3)cc2)nc2ccc(F)cc12` the value was 990 nM.
For the compound `Fc1ccc2nc(-c3ccc(CN4CCOCC4)cc3)cc(CNCCN3CCN(c4ccccc4)CC3)c2c1`, the 50% inhibitory concentration (IC50) (commonly the midpoint of a concentration-inhibition curve) was determined as 20 nM.
Compound `Nc1cc(-c2ccc(CN3CCOCC3)cc2)nc2ccc(F)cc12` gave a half-maximal inhibitory concentration (IC50) of 230 nM.
For `CN1CCN(CCC(=O)Nc2cc(-c3ccc(CN4CCOCC4)cc3)nc3ccc(F)cc23)CC1`, the IC50 came out at 610 nM.
For `CC(NC(=O)c1cc(-c2ccc(CN3CCOCC3)cc2)nc2ccc(F)cc12)c1ccccc1` (racemic), the IC50 is 5600 nM.
Still for that read-out and setting: then `Fc1ccc2nc(-c3ccc(CN4CCOCC4)cc3)cc(CNCCN3CCCC3)c2c1`, with 1.1 nM.

For the next series, the system named is Plasmodium falciparum. The series can be described thus: Antiplasmodial activity against chloroquine and pyrimethamine resistant Plasmodium falciparum K1 erythrocytic stages incubated for 48 hrs by [3H]-hypoxanthine incorporation assay. The class given is functional, organism-based.
Conditions: not given
As to `C[C@@H]1CC[C@H]2[C@@H](C)C(=O)O[C@@H]3O[C@@]4(C)CC[C@@H]1[C@]32OO4` [ARTEMISININ], the half-inhibitory concentration (IC50) turned out to be 6.4 nM.
Same read-out and setting: then `O=C(CN1CCCC1)Nc1cc(-c2ccc(CN3CCOCC3)cc2)nc2ccc(F)cc12`, with 820 nM; and `Fc1ccc2nc(-c3ccc(CN4CCOCC4)cc3)cc(CNCCN3CCN(c4ccccc4)CC3)c2c1`, with 37 nM.
`Nc1cc(-c2ccc(CN3CCOCC3)cc2)nc2ccc(F)cc12` registered a 50% inhibitory concentration (IC50) of 390 nM.
Same read-out and setting: then `Fc1ccc2nc(-c3ccc(CN4CCOCC4)cc3)cc(CNCCN3CCCC3)c2c1`, with 1.1 nM.

Test system in a further series: not listed separately
The series can be described thus: Selectivity index, ratio of IC50 for rat L6 cells to IC50 for chloroquine-sensitive Plasmodium falciparum NF54 erythrocytic stages. It counts as toxicity. As to conditions: read-out: Ratio IC50.
`CC(C)(C)N1CCN(CCNC(=O)c2cc(-c3ccc(CN4CCOCC4)cc3)nc3ccc(F)cc23)CC1`: the selectivity ratio worked out at 32.1.
On the same count and under the same terms, for `O=C(c1cc(-c2ccc(CN3CCOCC3)cc2)nc2ccc(F)cc12)N1CCCCC1` the value was 2.69.
Still for that read-out and setting: for `O=C(CN1CCCC1)Nc1cc(-c2ccc(CN3CCOCC3)cc2)nc2ccc(F)cc12` the value was 54.6; for `O=C(NCCc1ccccc1)c1cc(-c2ccc(CN3CCOCC3)cc2)nc2ccc(F)cc12`, 3.57.
On to `O=C(NCc1ccccc1)c1cc(-c2ccc(CN3CCOCC3)cc2)nc2ccc(F)cc12`, for which the selectivity ratio stood at 17.2.
On the same count and under the same terms, then `CC(C)(C)C(=O)N1CCN(CCNC(=O)c2cc(-c3ccc(CN4CCOCC4)cc3)nc3ccc(F)cc23)CC1`, with 16000; and `O=C(NC1CCNCC1)c1cc(-c2ccc(CN3CCOCC3)cc2)nc2ccc(F)cc12`, with 69.9.
Still for that read-out and setting: then `Fc1ccc2nc(-c3ccc(CN4CCOCC4)cc3)cc(CNCCN3CCN(c4ccccc4)CC3)c2c1`, with 732.
On the same count and under the same terms, then `Nc1cc(-c2ccc(CN3CCOCC3)cc2)nc2ccc(F)cc12`, with 93.3; and `CN1CCN(CCC(=O)Nc2cc(-c3ccc(CN4CCOCC4)cc3)nc3ccc(F)cc23)CC1`, with 51.8.
Turning to `CC(NC(=O)c1cc(-c2ccc(CN3CCOCC3)cc2)nc2ccc(F)cc12)c1ccccc1` (racemic), the selectivity ratio amounted to 12.9.
Still for that read-out and setting: for `Fc1ccc2nc(-c3ccc(CN4CCOCC4)cc3)cc(CNCCN3CCCC3)c2c1` the value was 48900.

Test system in a further series: not listed separately
The series can be described thus: Selectivity index, ratio of IC50 for rat L6 cells to IC50 for chloroquine and pyrimethamine resistant Plasmodium falciparum K1. Conditions: read-out: Ratio IC50. It counts as toxicity.
Turning to `C[C@@H]1CC[C@H]2[C@@H](C)C(=O)O[C@@H]3O[C@@]4(C)CC[C@@H]1[C@]32OO4` [ARTEMISININ], the selectivity ratio was found to be 70400.
Turning to `O=C(CN1CCCC1)Nc1cc(-c2ccc(CN3CCOCC3)cc2)nc2ccc(F)cc12`, the selectivity ratio turned out to be 69.3.
Regarding `Fc1ccc2nc(-c3ccc(CN4CCOCC4)cc3)cc(CNCCN3CCN(c4ccccc4)CC3)c2c1`, the selectivity ratio was 396.
The same measure, in the same setting: for `Nc1cc(-c2ccc(CN3CCOCC3)cc2)nc2ccc(F)cc12` the value was 55; for `Fc1ccc2nc(-c3ccc(CN4CCOCC4)cc3)cc(CNCCN3CCCC3)c2c1`, 48900.

Another series has as its system L6. The series can be described thus: Cytotoxicity in rat L6 cells assessed as reduction in cell viability incubated for 72 hrs by alamar blue assay. The class given is cell-based. Conditions: L6, 72 h. Background: The colour change of resazurin is a common sign of viable cells or microbes.
Take `COc1cc([C@@H]2c3cc4c(cc3[C@H](O)[C@H]3COC(=O)[C@H]23)OCO4)cc(OC)c1OC` [PODOFILOX]: the IC50 amounted to 0.012 µM.

Staying with this series, now noted: L6, 72 h, read-out: IC50.
Consider `CC(C)(C)N1CCN(CCNC(=O)c2cc(-c3ccc(CN4CCOCC4)cc3)nc3ccc(F)cc23)CC1`, for which the IC50 worked out at 100 µM.
Take `O=C(c1cc(-c2ccc(CN3CCOCC3)cc2)nc2ccc(F)cc12)N1CCCCC1`: the concentration for half-maximal inhibition (IC50) amounted to 102 µM.
Same read-out and setting: then `O=C(CN1CCCC1)Nc1cc(-c2ccc(CN3CCOCC3)cc2)nc2ccc(F)cc12`, with 56.8 µM.
Still for that read-out and setting: then `O=C(NCCc1ccccc1)c1cc(-c2ccc(CN3CCOCC3)cc2)nc2ccc(F)cc12`, with 16.5 µM; and `O=C(NCc1ccccc1)c1cc(-c2ccc(CN3CCOCC3)cc2)nc2ccc(F)cc12`, with 103 µM; and `CC(C)(C)C(=O)N1CCN(CCNC(=O)c2cc(-c3ccc(CN4CCOCC4)cc3)nc3ccc(F)cc23)CC1`, with 80 µM.
Turning to `O=C(NC1CCNCC1)c1cc(-c2ccc(CN3CCOCC3)cc2)nc2ccc(F)cc12`, the IC50 came to 69.2 µM.
For the compound `Fc1ccc2nc(-c3ccc(CN4CCOCC4)cc3)cc(CNCCN3CCN(c4ccccc4)CC3)c2c1`, the IC50 was determined as 14.6 µM.
On to `Nc1cc(-c2ccc(CN3CCOCC3)cc2)nc2ccc(F)cc12`, for which the IC50 is 21.5 µM.
`CN1CCN(CCC(=O)Nc2cc(-c3ccc(CN4CCOCC4)cc3)nc3ccc(F)cc23)CC1`: the IC50 was 31.6 µM.
On the same count and under the same terms, for `CC(NC(=O)c1cc(-c2ccc(CN3CCOCC3)cc2)nc2ccc(F)cc12)c1ccccc1` (racemic) the value was 72.4 µM.
The same measure, in the same setting: then `Fc1ccc2nc(-c3ccc(CN4CCOCC4)cc3)cc(CNCCN3CCCC3)c2c1`, with 53.8 µM.

Test system in another series: not listed separately
The series can be described thus: Effective permeability by PAMPA. The class given is ADME. Conditions: read-out: Peff. (In general: In PAMPA a lipid-coated filter parts donor from acceptor wells.)
As for `CC(C)(C)N1CCN(CCNC(=O)c2cc(-c3ccc(CN4CCOCC4)cc3)nc3ccc(F)cc23)CC1`, the Papp came out at 2.09 ×10⁻⁶ cm/s.
Consider `CC(C)(C)C(=O)N1CCN(CCNC(=O)c2cc(-c3ccc(CN4CCOCC4)cc3)nc3ccc(F)cc23)CC1`, for which the Papp is 6.11 ×10⁻⁶ cm/s.
`Fc1ccc2nc(-c3ccc(CN4CCOCC4)cc3)cc(CNCCN3CCN(c4ccccc4)CC3)c2c1`: the Papp was 2.39 ×10⁻⁶ cm/s.
On the same count and under the same terms, then `Fc1ccc2nc(-c3ccc(CN4CCOCC4)cc3)cc(CNCCN3CCCC3)c2c1`, with 4.55 ×10⁻⁶ cm/s.

Another series concerns Plasmodium berghei. The series can be described thus: Antiplasmodial activity against GFP-transfected Plasmodium berghei ANKA infected in NMRI mouse assessed as reduction in parasitaemia at 50 mg/kg/day, ip for consecutive 4 days (4, 24, 48 and 72 hrs post infection) and measured up to 20 days after infection relative to untreated control. It counts as functional. Details: scale not given: the % may be the effect or the level left.
Conditions: not given
In the case of `CCN(CC)CCCC(C)Nc1ccnc2cc(Cl)ccc12` (configuration not stated) [CHLOROQUINE], the Activity is recorded as 99.6%.
Still for that read-out and setting: then `CC(C)(C)C(=O)N1CCN(CCNC(=O)c2cc(-c3ccc(CN4CCOCC4)cc3)nc3ccc(F)cc23)CC1`, with 25.2%.
The same measure, in the same setting: then `Fc1ccc2nc(-c3ccc(CN4CCOCC4)cc3)cc(CNCCN3CCCC3)c2c1`, with 99.4%.

The test system of another series is Plasmodium berghei.
Conditions: not given
Regarding `CCN(CC)CCCC(C)Nc1ccnc2cc(Cl)ccc12` (configuration not stated) [CHLOROQUINE], the MSD stood at 20 days.
`CC(C)(C)C(=O)N1CCN(CCNC(=O)c2cc(-c3ccc(CN4CCOCC4)cc3)nc3ccc(F)cc23)CC1` had an MSD of 4 days.
The compound `Fc1ccc2nc(-c3ccc(CN4CCOCC4)cc3)cc(CNCCN3CCCC3)c2c1` had an MSD of 10 days.
